The nature of this data set: Blood PK of Trehalose after IV and PO administration, with and without PO Miglustat (LC-MS/MS). The format is in vivo, mouse. The note with it: for Cmax / Tmax / AUC(0-inf): male, C57BL6/N, mouse, whole blood; for AUC(0-inf): read-out: AUC0-inf of Trehalose in blood (converted). The method, then:
LC-MS/MS bioanalytical methodologies were developed for the analysis of Trehalose, Miglustat and glucose in mouse whole blood and brain.
Blood samples were prepared as follows; 20 μL of whole blood was transferred to a 96 wellplate and diluted 1:1 with sterile distilled water. Samples were protein precipitated by addition of 160 μL of 2.5% of trichloroacetic acid (TCA). At the time of analysis, 1 volume of acetonitrile containing an internal standard was added in order to match the initial chromatography conditions, samples were centrifuged at 4350 rpm for 10 min at ambient temperature, and the resultant supernatant transferred for analysis on the LC-MS/MS.
The purpose of this example was to compare the blood PK of unlabelled high doses of Trehalose after IV and PO administration, with and without Miglustat PO dosing. For the IV comparison, Trehalose was dosed as an IV bolus dose 15 min after PO dosing of Miglustat. For the PO comparison Miglustat was dosed simultaneously with Trehalose. Fasted male C57BL6/N mice were dosed as detailed in Table III:
Blood samples were collected at pre-dose, 10, 20, 30, 60, 120 and 180 min post-dose for group 1 and 2 and at pre-dose, 15, 30, 45, 60, 120 and 180 min post-dose for group 3 and 4.

Setting [1] is: 1 g/kg trehalose IV + 150 mg/kg miglustat PO.
The mark [2] stands for this setting: 10 g/kg trehalose PO + 150 mg/kg miglustat PO.

Structures are written as SMILES. Like-named read-outs stand apart in the source and are kept apart here.

By Cmax is commonly meant the highest concentration seen after dosing. By Tmax is commonly meant the time from dosing to the highest level. `OC[C@H]1O[C@H](O[C@H]2O[C@H](CO)[C@@H](O)[C@H](O)[C@H]2O)[C@H](O)[C@@H](O)[C@@H]1O` [Trehalose, α-D-glucopyranosyl α-D-glucopyranoside dihydrate]: the “Trehalose fold-change with miglustat dosing” value (1 g/kg trehalose IV + 150 mg/kg miglustat PO vs 1 g/kg IV alone) is 1.5. Moreover, where the note is “Trehalose via either IV or PO administration”, the “increase of measured AUC of Trehalose by combined PO Miglustat” value is on record as over 1.5 fold. Under “low doses such as 1 g/kg, oral”, the “detection of Trehalose after oral administration” value was “cannot be detected”. Moreover, for the setting “1 g/kg trehalose IV”, the highest level (Cmax) was 3690 ± 153 µM, the Tmax is 20 min and the AUC(0-inf) is 1960 µM·h. Under setting [1], the Cmax was 5490 ± 873 µM, the Tmax was 20 min and the AUC(0-inf) is 2990 µM·h. Also, under setting [2], the Cmax came out at 189 ± 43.9 µM, the Tmax was 15 min and the AUC(0-inf) is 307 µM·h.

These data come from US20230321064A1, “Products for Treating the JNCL Disease” (Beyond Batten Disease Foundation, priority 2020, published 2023).
